This note sets out measurements from patent US8461162B2, “Pyrazolo[1,5-a]pyrimidine derivatives” (Merck Sharp & Dohme Corp., priority 2007, dated 2013).

The test concerns the target T1, recombinant MARK3 enzyme (Homo sapiens, UniProt P27448).
T1 construct: purchased University of Dundee
Description: MARK 3 Assay (HTRF, Cdc25C biotinylated peptide substrate). The format is biochemical. Conditions: 10 μM ATP, 2 hours at 25° C. On the procedure: MARK3 activity was assayed in vitro using a Cdc25C biotinylated peptide substrate (Cell Signalling Technologies). The phosphopeptide product was quantitated using a Homogenous Time-Resolved Fluorescence (HTRF) assay system (Park et al., 1999, Anal. Biochem. 269:94-104). The reaction mixture contained 50 mM HEPES/Tris-HCl, pH 7.4; 10 mM NaCl, 5 mM MgCl2, 0.2 mM NaVO4, 5 mM β-glycerol phosphate, 0.1% Tween-20, 2 mM dithiothreitol, 0.1% BSA, 10 μM ATP, 1 μM peptide substrate, and 10 nM recombinant MARK3 enzyme (University of Dundee) in a final volume of 12 μl. The buffer additionally contained protease inhibitor cocktail (Roche EDTA-free, 1 tab per 50 ml). The kinase reaction was incubated for 2 hours at 25° C., and then terminated with 3 μl Stop/Detection Buffer (50 mM HEPES, pH 7.0, 16.6 mM EDTA, 0.5M KF, 0.1% Tween-20, 0.1% BSA, 2 μg/ml SLX^ent 665 (CISBIO), and 2 μg/ml Eu^3+ cryptate label antibody (CISBIO)). The reaction was allowed to equilibrate overnight at 0° C., and relative fluorescent units were read on an HTRF enabled plate reader (e.g. TECAN GENios Pro).
Inhibitor compounds were assayed in the reaction described above to determine compound IC50s. Aliquots of compound dissolved in DMSO were added to the reaction wells in a third-log dilution series covering a range of 1 nM to 10 μM. Relative phospho substrate formation, read as HTRF fluorescence units, was measured over the range of compound concentrations and a titration curve generated.
(In general: Time-resolved FRET reads energy transfer from a long-lived donor to a nearby acceptor.)

Molecules are shown by their SMILES.

T1 sequence (P27448 whole entry, species assumed): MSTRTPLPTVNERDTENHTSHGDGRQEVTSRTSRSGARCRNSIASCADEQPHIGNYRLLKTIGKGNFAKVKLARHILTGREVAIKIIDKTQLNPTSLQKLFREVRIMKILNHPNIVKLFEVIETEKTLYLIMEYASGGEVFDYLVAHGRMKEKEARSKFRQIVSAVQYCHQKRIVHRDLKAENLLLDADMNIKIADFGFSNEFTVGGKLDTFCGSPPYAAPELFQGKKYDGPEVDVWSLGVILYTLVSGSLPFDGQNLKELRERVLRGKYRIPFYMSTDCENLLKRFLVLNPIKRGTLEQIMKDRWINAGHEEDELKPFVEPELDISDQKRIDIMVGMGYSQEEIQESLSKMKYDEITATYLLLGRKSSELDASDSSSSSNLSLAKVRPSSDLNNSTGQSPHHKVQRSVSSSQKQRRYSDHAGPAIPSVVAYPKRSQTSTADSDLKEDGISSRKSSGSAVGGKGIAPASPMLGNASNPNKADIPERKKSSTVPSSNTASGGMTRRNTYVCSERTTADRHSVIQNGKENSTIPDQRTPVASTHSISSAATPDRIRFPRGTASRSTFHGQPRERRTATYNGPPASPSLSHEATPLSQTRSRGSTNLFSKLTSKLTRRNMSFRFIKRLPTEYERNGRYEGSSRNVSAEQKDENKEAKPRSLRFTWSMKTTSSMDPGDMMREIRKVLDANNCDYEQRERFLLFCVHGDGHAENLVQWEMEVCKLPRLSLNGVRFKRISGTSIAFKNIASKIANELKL

Broadly, the IC50 is the point on the concentration scale where inhibition reaches its midpoint. As to `Cn1cc(-c2cnc3c(-c4ccc(C(=O)N[C@@H]5CCCC[C@@H]5N)cc4)cnn3c2)cn1` (stereo in doubt) [Example 219, N-[2-aminocyclohexyl]-4-[6-(1-methyl-1H-pyrazol-4-yl)pyrazolo[1,5-a]pyrimidin-3-yl]benzamide], the IC50 came out at 127 nM. To `O=C(NCC(F)(F)F)c1cc(-c2cnn3cc(-c4ccn(CCCN5CCC(F)(F)C5)c(=O)c4)cnc23)cs1` [Example 8, 4-(6-{1-[3-(3,3-difluoropyrrolidin-1-yl)propyl]-2-oxo-1,2-dihydropyridin-4-yl}pyrazolo[1,5-a]pyrimidin-3-yl)-N-(2,2,2-trifluoroethyl)thiophene-2-carboxamide] belongs 158 nM; to `CC(C)[C@@H](NC(=O)c1cc(-c2cnn3cc(-c4ccc(NCC(C)(C)O)nc4)cnc23)cs1)C(F)(F)F` [Example 49, 4-(6-{6-[(2-hydroxy-2-methylpropyl)amino]pyridin-3-yl}pyrazolo[1,5-a]pyrimidin-3-yl)-N-[(1R)-2-methyl-1-(trifluoromethyl)propyl]thiophene-2-carboxamide], 4 nM. In the case of `O=C(NCC(F)(F)F)c1cc(-c2cnn3cc(-c4ccc(N5CCOCC5)nc4)cnc23)cs1` [Example 50, 4-[6-(6-morpholin-4-ylpyridin-3-yl)pyrazolo[1,5-a]pyrimidin-3-yl]-N-(2,2,2-trifluoroethyl)thiophene-2-carboxamide], the IC50 was determined as 35 nM. To `O=C(NCc1nccs1)c1cc(-c2cnn3cc(-c4cccnc4)cnc23)cs1` [Example 184, 4-(6-pyridin-3-ylpyrazolo[1,5-a]pyrimidin-3-yl)-N-(1,3-thiazol-2-ylmethyl)thiophene-2-carboxamide] belongs 607 nM. The figure for `Cc1sc(C(=O)N[C@@H]2[C@H](N)CCCC2(F)F)cc1-c1cnn2cc(-c3cnn(C)c3)cnc12` [Example 202, N-[(1R,6R)-6-amino-2,2-difluorocyclohexyl]-5-methyl-4-[6-(1-methyl-1H-pyrazol-4-yl)pyrazolo[1,5-a]pyrimidin-3-yl]thiophene-2-] is < 0.3 nM; for `Cn1cc(-c2cnc3c(-c4nc(C(=O)NCC(F)(F)F)sc4Cl)cnn3c2)cn1` [Example 205, 5-chloro-4-[6-(1-methyl-1H-pyrazol-4-yl)pyrazolo[1,5-a]pyrimidin-3-yl]-N-(2,2,2-trifluoroethyl)-1,3-thiazole-2-carboxamide] it is 60 nM.
